Source: the supplement of paper PMC11451515

System: NOMO1
Assay: cell viability relative to DMSO control; higher = less cytotoxic
Conditions: 48 h
Summary of the method: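 Viability is a per-plate percentage relative to DMSO wells, with cell-free wells as background. CellTiter-Glo One luminescence was read after 48 h at 37°C on 1536-well plates (5 μl) of NOMO1 or SEM (500 cells/well) or P12-Ichikawa (1000 cells/well) leukemia cells. The cells had been adapted for at least four passages in each medium and pin-dosed with library compounds in DMSO from 47 μM to 0.79 nM in 11 threefold steps.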

[1] = HPLM + 10% dialyzed FBS, 0.000781 µM
[2] = HPLM + 10% dialyzed FBS, 0.00234 µM
[3] = HPLM + 10% dialyzed FBS, 0.00702 µM
[4] = HPLM + 10% dialyzed FBS, 0.0211 µM
[5] = HPLM + 10% dialyzed FBS, 0.0632 µM
[6] = HPLM + 10% dialyzed FBS, 0.19 µM
[7] = HPLM + 10% dialyzed FBS, 0.569 µM
[8] = HPLM + 10% dialyzed FBS, 1.71 µM
[9] = HPLM + 10% dialyzed FBS, 5.12 µM
[10] = HPLM + 10% dialyzed FBS, 15.4 µM
[11] = HPLM + 10% dialyzed FBS, 46.1 µM
[12] = RPMI 5 mM glucose + 10% FBS, 0.000781 µM
[13] = RPMI 5 mM glucose + 10% FBS, 0.00234 µM
[14] = RPMI 5 mM glucose + 10% FBS, 0.00702 µM
[15] = RPMI 5 mM glucose + 10% FBS, 0.0211 µM
[16] = RPMI 5 mM glucose + 10% FBS, 0.0632 µM
[17] = RPMI 5 mM glucose + 10% FBS, 0.19 µM
[18] = RPMI 5 mM glucose + 10% FBS, 0.569 µM
[19] = RPMI 5 mM glucose + 10% FBS, 1.71 µM
[20] = RPMI 5 mM glucose + 10% FBS, 5.12 µM
[21] = RPMI 5 mM glucose + 10% FBS, 15.4 µM
[22] = RPMI 5 mM glucose + 10% FBS, 46.1 µM
[23] = RPMI 5 mM glucose + 10% dialyzed FBS, 0.000781 µM
[24] = RPMI 5 mM glucose + 10% dialyzed FBS, 0.00234 µM
[25] = RPMI 5 mM glucose + 10% dialyzed FBS, 0.00702 µM
[26] = RPMI 5 mM glucose + 10% dialyzed FBS, 0.0211 µM
[27] = RPMI 5 mM glucose + 10% dialyzed FBS, 0.0632 µM
[28] = RPMI 5 mM glucose + 10% dialyzed FBS, 0.19 µM
[29] = RPMI 5 mM glucose + 10% dialyzed FBS, 0.569 µM
[30] = RPMI 5 mM glucose + 10% dialyzed FBS, 1.71 µM
[31] = RPMI 5 mM glucose + 10% dialyzed FBS, 5.12 µM
[32] = RPMI 5 mM glucose + 10% dialyzed FBS, 15.4 µM
[33] = RPMI 5 mM glucose + 10% dialyzed FBS, 46.1 µM

Row | SMILES | cell viability [1] [%] | cell viability [2] [%] | cell viability [3] [%] | cell viability [4] [%] | cell viability [5] [%] | cell viability [6] [%] | cell viability [7] [%] | cell viability [8] [%] | cell viability [9] [%] | cell viability [10] [%] | cell viability [11] [%] | cell viability [12] [%] | cell viability [13] [%] | cell viability [14] [%] | cell viability [15] [%] | cell viability [16] [%] | cell viability [17] [%] | cell viability [18] [%] | cell viability [19] [%] | cell viability [20] [%] | cell viability [21] [%] | cell viability [22] [%] | cell viability [23] [%] | cell viability [24] [%] | cell viability [25] [%] | cell viability [26] [%] | cell viability [27] [%] | cell viability [28] [%] | cell viability [29] [%] | cell viability [30] [%] | cell viability [31] [%] | cell viability [32] [%] | cell viability [33] [%]
1 | C[C@@H](NCc1cc2ccccc2[nH]1)c1cccc2ccccc12 | 88.3 | 82.2 | 91.6 | 90.6 | 94.6 | 95.5 | 91.9 | 95.2 | 97.1 | 92.3 | 100 | 84.3 | 87.5 | 80.1 | 86.1 | 90.5 | 88.1 | 97.4 | 89.8 | 95.5 | 94.5 | 91.8 | 93.6 | 89.8 | 89 | 87.8 | 84.2 | 102 | 102 | 93.7 | 97 | 92.3 | 102
2 | O=P1(N(CCCl)CCCl)NCCCO1 (configuration not stated) | 134 | 106 | 108 | 115 | 101 | 112 | 122 | 120 | 97.6 | 91 | 75.7 | 108 | 98.4 | 110 | 99.7 | 102 | 103 | 97.8 | 87.3 | 91.4 | 50.5 | 47.5 | 85.1 | 110 | 99.7 | 119 | 119 | 112 | 103 | 110 | 84.9 | 54 | 50.7
3 | Oc1cc2c(cc1O)C1c3ccc(O)c(O)c3OCC1(O)C2 (configuration not stated) | 95.1 | 89.1 | 104 | 93.5 | 111 | 107 | 102 | 115 | 111 | 105 | 110 | 102 | 92.3 | 101 | 102 | 91.9 | 96.6 | 97.7 | 94.9 | 106 | 92.2 | 93.9 | 77.6 | 87.2 | 104 | 97.2 | 99 | 106 | 107 | 110 | 103 | 103 | 102
4 | CN(c1nccc(=O)[nH]1)C1CCN(c2nc3ccccc3n2Cc2ccc(F)cc2)CC1 | 90 | 104 | 116 | 117 | 128 | 124 | 116 | 120 | 105 | 111 | 99.1 | 104 | 101 | 112 | 104 | 114 | 115 | 130 | 126 | 117 | 108 | 105 | 109 | 108 | 105 | 121 | 114 | 116 | 122 | 121 | 114 | 131 | 90.8
5 | N#CC1(c2ccc(NC(=O)c3cccnc3NCc3ccncc3)cc2)CCCC1 | 112 | 110 | 110 | 121 | 114 | 98.4 | 108 | 95.2 | 103 | 91.4 | 93.1 | 99.5 | 106 | 99.2 | 102 | 113 | 106 | 97.8 | 104 | 103 | 105 | 98.1 | 110 | 105 | 116 | 115 | 120 | 109 | 104 | 106 | 113 | 104 | 99.8
6 | CC(C)C(=O)Nc1ncc(-c2cc(C(F)F)nn2-c2c(Cl)cccc2Cl)s1 | 116 | 123 | 112 | 137 | 152 | 125 | 148 | 132 | 133 | 133 | 83.9 | – | – | – | – | – | – | – | – | – | – | – | – | – | – | – | – | – | – | – | – | – | –
7 | CC1(C)Cc2c(sc(NC(=S)NC(=O)c3ccccc3)c2C(=O)O)CO1 | 102 | 107 | 100 | 117 | 120 | 114 | 115 | 112 | 114 | 94.5 | 95.1 | 115 | 111 | 105 | 101 | 105 | 96.6 | 118 | 106 | 115 | 101 | 91.5 | 87.7 | 102 | 96.3 | 108 | 109 | 103 | 121 | 109 | 101 | 101 | 102
8 | CCc1cccc2c3c([nH]c12)C(CC)(CC(=O)O)OCC3 (configuration not stated) | 98.5 | 98.5 | 122 | 105 | 100 | 113 | 88.4 | 97.8 | 97.4 | 100 | 84.5 | 95 | 92.7 | 95.9 | 102 | 85 | 90.4 | 98.1 | 93.2 | 93.6 | 84.7 | 87.2 | 100 | 94.3 | 95.1 | 87.3 | 82.4 | 77.7 | 89.3 | 87.5 | 92.9 | 82.9 | 97.1
